ChEMBL document CHEMBL5325412, “Privileged heterocycles for DNA-encoded library design and hit-to-lead optimization” (Eur J Med Chem, 2023)
Converted amounts (≈) assume the structure as drawn. Values belong to the molecule of their own block, whether it stands above or below them.

Columns and labels:
Autotaxin = Autotaxin (Homo sapiens, UniProt Q13822); assay: Inhibition of ATX (unknown origin)
CREB-binding protein = CREB-binding protein (Homo sapiens, UniProt Q92793); assay: Inhibition of N-terminal His-tagged CREBBP (unknown origin) expressed in Escherichia coli BL21 (DE3)
Chain of CREB-binding protein (Q92793 whole entry): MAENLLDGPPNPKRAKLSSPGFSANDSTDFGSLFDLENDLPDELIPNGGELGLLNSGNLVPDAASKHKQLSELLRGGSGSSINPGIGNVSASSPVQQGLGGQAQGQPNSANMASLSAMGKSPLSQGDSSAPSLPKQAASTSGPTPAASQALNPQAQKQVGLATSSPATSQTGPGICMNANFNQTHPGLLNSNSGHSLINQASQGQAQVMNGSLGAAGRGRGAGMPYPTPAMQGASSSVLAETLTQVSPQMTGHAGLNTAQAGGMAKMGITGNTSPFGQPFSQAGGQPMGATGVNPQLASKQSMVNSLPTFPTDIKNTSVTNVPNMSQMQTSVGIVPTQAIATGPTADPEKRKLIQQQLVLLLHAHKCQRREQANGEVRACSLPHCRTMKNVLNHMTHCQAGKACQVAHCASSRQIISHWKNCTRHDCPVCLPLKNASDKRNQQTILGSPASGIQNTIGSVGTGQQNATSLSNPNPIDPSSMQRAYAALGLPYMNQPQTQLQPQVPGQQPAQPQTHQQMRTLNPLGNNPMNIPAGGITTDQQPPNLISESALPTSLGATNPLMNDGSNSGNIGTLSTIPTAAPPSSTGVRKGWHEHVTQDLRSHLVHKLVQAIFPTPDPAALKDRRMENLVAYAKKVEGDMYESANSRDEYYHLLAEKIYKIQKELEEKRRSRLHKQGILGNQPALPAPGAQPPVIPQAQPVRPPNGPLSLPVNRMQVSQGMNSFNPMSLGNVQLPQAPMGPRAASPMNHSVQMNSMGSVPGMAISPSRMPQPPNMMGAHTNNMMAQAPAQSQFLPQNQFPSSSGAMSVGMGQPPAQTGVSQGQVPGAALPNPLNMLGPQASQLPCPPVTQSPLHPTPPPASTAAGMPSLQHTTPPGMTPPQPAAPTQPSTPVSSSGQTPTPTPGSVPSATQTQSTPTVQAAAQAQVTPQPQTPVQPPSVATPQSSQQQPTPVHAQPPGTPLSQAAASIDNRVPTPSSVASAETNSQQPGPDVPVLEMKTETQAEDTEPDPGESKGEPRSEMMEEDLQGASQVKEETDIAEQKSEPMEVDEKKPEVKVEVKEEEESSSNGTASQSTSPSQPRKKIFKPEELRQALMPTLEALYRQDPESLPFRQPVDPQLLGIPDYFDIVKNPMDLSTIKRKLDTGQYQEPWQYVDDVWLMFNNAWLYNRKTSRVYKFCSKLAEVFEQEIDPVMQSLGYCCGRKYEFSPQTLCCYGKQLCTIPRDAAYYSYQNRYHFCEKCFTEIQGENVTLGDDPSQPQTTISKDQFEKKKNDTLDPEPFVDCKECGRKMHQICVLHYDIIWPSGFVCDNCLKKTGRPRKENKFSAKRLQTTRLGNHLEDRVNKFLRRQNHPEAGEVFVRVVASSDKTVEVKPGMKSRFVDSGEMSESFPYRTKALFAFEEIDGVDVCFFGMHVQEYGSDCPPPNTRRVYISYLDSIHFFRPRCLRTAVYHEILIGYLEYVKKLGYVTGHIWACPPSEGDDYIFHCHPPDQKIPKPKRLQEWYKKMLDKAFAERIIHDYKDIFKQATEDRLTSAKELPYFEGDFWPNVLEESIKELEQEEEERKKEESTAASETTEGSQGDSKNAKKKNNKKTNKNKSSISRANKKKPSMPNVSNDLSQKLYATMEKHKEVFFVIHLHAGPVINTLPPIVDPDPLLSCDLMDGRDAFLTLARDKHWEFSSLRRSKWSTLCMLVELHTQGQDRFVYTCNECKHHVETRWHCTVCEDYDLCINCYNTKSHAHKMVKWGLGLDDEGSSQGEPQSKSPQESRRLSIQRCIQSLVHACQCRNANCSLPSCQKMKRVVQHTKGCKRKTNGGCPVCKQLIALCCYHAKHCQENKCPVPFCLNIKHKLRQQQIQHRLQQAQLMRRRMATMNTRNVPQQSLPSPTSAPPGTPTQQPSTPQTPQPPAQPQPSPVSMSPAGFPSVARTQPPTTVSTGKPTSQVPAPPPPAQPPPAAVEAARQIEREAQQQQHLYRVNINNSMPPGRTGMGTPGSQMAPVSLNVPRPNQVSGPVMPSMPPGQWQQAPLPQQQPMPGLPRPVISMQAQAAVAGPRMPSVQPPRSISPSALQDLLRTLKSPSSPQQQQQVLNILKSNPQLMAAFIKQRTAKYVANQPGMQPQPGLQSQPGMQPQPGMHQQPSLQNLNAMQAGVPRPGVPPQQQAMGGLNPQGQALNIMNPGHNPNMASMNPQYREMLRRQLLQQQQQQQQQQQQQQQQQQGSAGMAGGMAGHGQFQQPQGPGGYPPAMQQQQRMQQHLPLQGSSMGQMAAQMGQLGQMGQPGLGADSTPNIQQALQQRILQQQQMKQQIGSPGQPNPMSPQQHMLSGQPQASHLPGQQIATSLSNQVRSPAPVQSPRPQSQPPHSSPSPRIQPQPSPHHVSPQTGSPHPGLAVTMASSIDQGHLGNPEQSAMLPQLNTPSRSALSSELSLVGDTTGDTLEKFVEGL

[1] = Binding affinity to Peptoid-inspired conformationally constrained oligomer (unknown origin) assessed as dissociation constant
[2] = Binding affinity to bacterial beta-lactamase OXA-48 expressed in Escherichia coli BL21 (DE3) using nitrocefin as substrate pre-incubated for 5 mins and measured for 20 mins by spectrometric analysis; parameters: species or system Bacteria
Prothrombin = Prothrombin (Homo sapiens, UniProt P00734); assay: Binding affinity to thrombin (unknown origin) assessed as inhibition constant
[3] = Inhibition of Hepatitis C virus genotype 1a NS4B; parameters: species or system Hepacivirus hominis
[4] = molecular target: Mitogen-activated protein kinase 10 (Homo sapiens, UniProt P53779); assay: Binding affinity to JNK3 (unknown origin) assessed as inhibition constant
Chain of Mitogen-activated protein kinase 10 (P53779 whole entry): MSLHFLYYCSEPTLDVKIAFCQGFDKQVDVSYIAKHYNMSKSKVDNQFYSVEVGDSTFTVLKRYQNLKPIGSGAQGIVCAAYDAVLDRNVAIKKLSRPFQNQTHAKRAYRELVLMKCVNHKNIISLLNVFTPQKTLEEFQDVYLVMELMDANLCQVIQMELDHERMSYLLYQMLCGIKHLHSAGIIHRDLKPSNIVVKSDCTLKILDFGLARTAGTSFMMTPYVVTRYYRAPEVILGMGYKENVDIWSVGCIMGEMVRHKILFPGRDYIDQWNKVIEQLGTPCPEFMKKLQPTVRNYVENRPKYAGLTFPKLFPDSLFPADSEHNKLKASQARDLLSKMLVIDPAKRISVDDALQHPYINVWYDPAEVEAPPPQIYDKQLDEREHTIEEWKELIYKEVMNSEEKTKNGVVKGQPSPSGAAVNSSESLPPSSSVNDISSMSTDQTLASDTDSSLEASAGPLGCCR

[5] = Inhibition of MAPK p68 (unknown origin); parameters: species or system Homo sapiens
[6] = Solubility of the compound; type: physicochemical
Albumin = Albumin (Homo sapiens, UniProt P02768); assay: Binding affinity to human serum albumin by fluorescence polarization assay
Chain of Albumin (P02768 whole entry): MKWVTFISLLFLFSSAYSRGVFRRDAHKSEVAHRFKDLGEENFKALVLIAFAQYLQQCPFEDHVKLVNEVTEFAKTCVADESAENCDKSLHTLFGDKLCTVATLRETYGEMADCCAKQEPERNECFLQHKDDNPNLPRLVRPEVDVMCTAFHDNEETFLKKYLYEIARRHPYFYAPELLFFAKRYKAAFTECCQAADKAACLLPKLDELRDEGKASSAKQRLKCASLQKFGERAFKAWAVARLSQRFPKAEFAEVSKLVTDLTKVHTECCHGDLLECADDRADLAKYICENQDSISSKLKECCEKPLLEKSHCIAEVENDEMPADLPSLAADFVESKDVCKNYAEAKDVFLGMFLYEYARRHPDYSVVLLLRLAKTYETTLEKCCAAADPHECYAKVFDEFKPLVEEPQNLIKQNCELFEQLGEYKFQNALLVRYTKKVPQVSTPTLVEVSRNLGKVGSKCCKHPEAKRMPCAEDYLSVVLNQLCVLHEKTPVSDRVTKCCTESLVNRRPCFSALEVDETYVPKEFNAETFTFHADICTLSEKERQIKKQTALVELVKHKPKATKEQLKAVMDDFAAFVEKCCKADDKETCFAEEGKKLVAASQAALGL

Quadruplex DNA [7] = assay: Binding affinity to c-MYC G4- quadruplex DNA Pu22 (unknown origin) assessed as inhibition constant by SPR analysis; type: nucleic-acid assay
[8] = molecular target: Mitogen-activated protein kinase 8 (Homo sapiens, UniProt P45983); assay: Binding affinity to JNK1 (unknown origin) assessed as dissociation constant
Chain of Mitogen-activated protein kinase 8 (P45983 whole entry): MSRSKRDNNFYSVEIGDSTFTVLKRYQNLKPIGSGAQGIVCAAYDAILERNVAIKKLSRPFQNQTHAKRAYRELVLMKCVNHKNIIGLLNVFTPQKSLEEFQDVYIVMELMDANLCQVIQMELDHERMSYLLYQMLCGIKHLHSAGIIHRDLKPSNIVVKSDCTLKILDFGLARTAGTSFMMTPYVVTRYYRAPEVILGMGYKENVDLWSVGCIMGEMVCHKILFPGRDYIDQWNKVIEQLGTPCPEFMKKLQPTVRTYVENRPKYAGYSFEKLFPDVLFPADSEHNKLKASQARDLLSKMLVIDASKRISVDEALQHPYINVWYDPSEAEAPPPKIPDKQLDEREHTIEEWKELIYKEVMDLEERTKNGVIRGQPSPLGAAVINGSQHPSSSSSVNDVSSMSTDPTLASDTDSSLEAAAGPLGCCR

Bacillus subtilis = assay: Antibacterial activity against Bacillus subtilis ATCC 23857 assessed as bacterial growth inhibition incubated for 16 hrs by broth dilution assay; type: functional
Escherichia coli = assay: Antibacterial activity against Escherichia coli ATCC 25922 assessed as bacterial growth inhibition measured after 16 hrs by broth dilution assay; type: functional
[9] = molecular target: T1, Poly [ADP-ribose] polymerase tankyrase-1 (Homo sapiens, UniProt O95271); assay: Binding affinity to TNKS1 (unknown origin) assessed as dissociation constant
T1 sequence (O95271 whole entry): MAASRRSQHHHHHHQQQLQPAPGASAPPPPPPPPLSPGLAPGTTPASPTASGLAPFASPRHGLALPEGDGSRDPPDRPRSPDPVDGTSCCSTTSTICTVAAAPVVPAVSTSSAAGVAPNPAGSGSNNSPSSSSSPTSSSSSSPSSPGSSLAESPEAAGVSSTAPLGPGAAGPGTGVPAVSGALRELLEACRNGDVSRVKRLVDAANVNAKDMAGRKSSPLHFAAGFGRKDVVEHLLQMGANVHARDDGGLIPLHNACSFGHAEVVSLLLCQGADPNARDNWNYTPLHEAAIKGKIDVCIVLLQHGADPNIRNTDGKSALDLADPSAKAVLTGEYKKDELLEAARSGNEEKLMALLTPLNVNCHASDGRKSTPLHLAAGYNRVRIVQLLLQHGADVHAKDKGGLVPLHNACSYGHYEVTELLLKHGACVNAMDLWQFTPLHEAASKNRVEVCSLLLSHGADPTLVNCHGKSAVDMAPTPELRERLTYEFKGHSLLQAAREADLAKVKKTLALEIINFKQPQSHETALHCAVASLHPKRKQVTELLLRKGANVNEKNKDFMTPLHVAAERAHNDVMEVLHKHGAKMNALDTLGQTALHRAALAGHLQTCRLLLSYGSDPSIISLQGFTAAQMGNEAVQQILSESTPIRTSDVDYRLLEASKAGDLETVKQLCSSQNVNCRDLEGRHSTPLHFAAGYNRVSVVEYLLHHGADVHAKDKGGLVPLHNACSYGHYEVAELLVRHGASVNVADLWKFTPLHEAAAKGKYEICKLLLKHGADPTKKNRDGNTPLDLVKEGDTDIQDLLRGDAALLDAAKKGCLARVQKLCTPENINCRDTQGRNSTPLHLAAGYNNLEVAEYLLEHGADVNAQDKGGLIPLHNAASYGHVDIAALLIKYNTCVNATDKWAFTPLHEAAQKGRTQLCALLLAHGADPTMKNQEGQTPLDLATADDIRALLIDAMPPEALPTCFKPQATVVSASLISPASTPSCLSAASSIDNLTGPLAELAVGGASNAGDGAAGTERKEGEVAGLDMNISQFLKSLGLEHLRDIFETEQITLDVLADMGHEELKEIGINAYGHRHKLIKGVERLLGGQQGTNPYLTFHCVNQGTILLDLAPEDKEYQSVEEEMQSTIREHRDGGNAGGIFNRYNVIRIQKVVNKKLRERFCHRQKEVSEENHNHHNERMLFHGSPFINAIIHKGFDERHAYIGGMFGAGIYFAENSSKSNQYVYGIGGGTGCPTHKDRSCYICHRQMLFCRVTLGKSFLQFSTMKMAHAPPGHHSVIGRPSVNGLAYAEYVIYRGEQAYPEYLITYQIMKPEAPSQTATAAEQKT

[10] = molecular target: T2, Proteinase-activated receptor 2 (Homo sapiens, UniProt P55085); assay: Antagonist activity at PAR2 (unknown origin) expressed in human 1321N1 cells; type: cell-based
T2 sequence (P55085 whole entry): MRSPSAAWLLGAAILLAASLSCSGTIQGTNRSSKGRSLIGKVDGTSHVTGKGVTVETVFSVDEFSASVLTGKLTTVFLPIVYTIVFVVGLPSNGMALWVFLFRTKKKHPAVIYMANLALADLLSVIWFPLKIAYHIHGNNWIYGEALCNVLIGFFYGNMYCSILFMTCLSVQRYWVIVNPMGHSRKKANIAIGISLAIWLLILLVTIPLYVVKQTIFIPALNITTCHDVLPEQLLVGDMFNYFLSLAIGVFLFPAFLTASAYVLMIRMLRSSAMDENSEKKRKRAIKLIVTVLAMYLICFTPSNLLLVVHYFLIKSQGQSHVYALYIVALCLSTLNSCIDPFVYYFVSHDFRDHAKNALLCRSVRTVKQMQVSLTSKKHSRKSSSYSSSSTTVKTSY

Quadruplex DNA [11] = assay: Binding affinity to c-MYC G4 quadruplex DNA (unknown origin) assessed as dissociation constant by fluorescence titration based analysis; type: nucleic-acid assay
Carbonic anhydrase 9 = Carbonic anhydrase 9 (Homo sapiens, UniProt Q16790); assay: Inhibition of human recombinant carbonic anhydrase IX
[12] = molecular target: T3, 2',5'-phosphodiesterase 12 (Homo sapiens, UniProt Q6L8Q7); assay: Binding affinity to PDE12 (unknown origin) (17 to 609 residues) assessed as inhibition constant by AMP-glo reagent based assay
T3 sequence (Q6L8Q7 whole entry): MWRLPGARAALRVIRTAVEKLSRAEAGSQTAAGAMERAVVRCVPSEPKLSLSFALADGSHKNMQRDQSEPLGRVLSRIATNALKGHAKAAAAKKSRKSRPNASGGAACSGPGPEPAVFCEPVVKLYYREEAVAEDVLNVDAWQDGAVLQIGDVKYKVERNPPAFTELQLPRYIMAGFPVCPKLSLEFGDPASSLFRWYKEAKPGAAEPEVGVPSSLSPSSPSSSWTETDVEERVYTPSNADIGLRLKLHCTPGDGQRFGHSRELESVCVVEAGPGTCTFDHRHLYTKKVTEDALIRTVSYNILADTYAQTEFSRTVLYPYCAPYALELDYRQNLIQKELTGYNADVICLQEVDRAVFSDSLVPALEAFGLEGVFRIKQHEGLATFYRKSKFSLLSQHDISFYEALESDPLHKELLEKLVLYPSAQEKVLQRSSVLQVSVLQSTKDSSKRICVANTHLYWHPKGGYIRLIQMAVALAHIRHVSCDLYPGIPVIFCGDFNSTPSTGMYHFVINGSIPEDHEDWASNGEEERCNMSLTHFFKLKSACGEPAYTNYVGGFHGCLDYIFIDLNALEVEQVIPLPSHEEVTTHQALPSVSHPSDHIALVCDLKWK

Kd [1]: 30 nM
SMILES: NC(=O)c1coc(CN(Cc2ccc3c(c2)OCO3)C(=O)c2coc(CN(Cc3ccc4c(c3)OCO4)C(=O)c3ncc(CCl)o3)n2)n1

Ki (Prothrombin): 1 nM
SMILES: CNC(=O)[C@@H]1CN(C(=O)[C@@H](Cc2ccccc2CNC(=N)N)NC(=O)N(C)C2CCOc3ccccc32)C[C@H]1c1ccc(OC)cc1 (stereo partly specified)

IC50 [3]: 42.1 nM
SMILES: O=C(c1ccc2[nH]ccc2c1)N1CCC2(CCCN(c3ncc(-c4ccccc4)c(-c4ccc(Cl)cc4)n3)C2)CC1

Ki [4]: 1.2 nM
SMILES: CCn1c(-c2ccccc2-c2ccc(C)cc2C)nc2cc(C(=O)NC)ccc21

solubility [6]: 54 µg/mL (≈ 87.8 µM)
Ki (Albumin): 49.7 nM
SMILES: NCCOCCOCCNC(=O)c1cccc(NC(=O)OC2CCN(C(=O)c3ccc(-c4nc5ccccc5[nH]4)cc3)CC2)c1

IC50 [10]: 23 nM
SMILES: CC(C1CCCCC1)n1c(-c2cc3c(cc2Br)OCO3)nc2cc(C(=O)Nc3ccc(C#N)cc3)ccc21 (stereo unspecified)

IC50 (Carbonic anhydrase 9): 20.1 nM
SMILES: CNC(=O)[C@@H]1[C@@H](c2ccc(-c3ccc(S(N)(=O)=O)cc3)cc2)CN1Cc1ccc(O)c2ncccc12

Ki [12]: 17.5 nM
SMILES: Cn1c(-c2c[nH]c3cc(C#N)ccc23)nc2ccc(C(=O)N3CCOC(c4ccccc4)C3CO)cc21 (stereo unspecified)

More lines, now with the values behind:

SMILES: NC(=O)CN1CN(c2ccccc2)C2(CCN(C(=O)CCc3ccc(Cl)cc3Cl)CC2)C1=O
IC50 (Autotaxin): 2800 nM

SMILES: C[C@@H]1CC(=O)Cc2cccc(C(=O)NCCNC(=O)CSC(=S)c3ccccc3)c2N1
IC50 (CREB-binding protein): 17000 nM

SMILES: CCOc1ccccc1N1CCN(c2ncnc(N3CCC(S(=O)(=O)O)CC3)n2)CC1
Ki [2]: 260 nM

SMILES: COc1ccc(Nc2nc(NCCc3ccccc3F)nc(Nc3ccc4ncccc4c3)n2)cc1OC
IC50 [5]: 2100 nM

SMILES: CCOc1ccccc1N1CCN(c2ncnc(N3CCC(C(=O)O)CC3)n2)CC1
Ki [2]: 530 nM

SMILES: Cc1cnccc1N1CCN(c2nccc3c2nc(-c2c[nH]c4ccncc24)n3C)CC1
Ki (Quadruplex DNA [7]): 328 nM

SMILES: O=C(/C=C/C(=O)c1ccc(F)c(F)c1)NCCOCCOCCNC(=O)c1cccnc1Oc1ccccc1
Kd [8]: 1000 nM

SMILES: O=C(O)c1cn(C2CC2)c2nc(N3CCNCC3)c(F)cc2c1=O
MIC (Bacillus subtilis): 0.063 µg/mL (≈ 0.19 µM)
MIC (Escherichia coli): 0.016 µg/mL (≈ 0.0481 µM)

SMILES: Cc1cn(CC(=O)N[C@@H](CCCCn2cc(-c3ccncc3F)nn2)C(N)=O)c(=O)[nH]c1=O
Kd [9]: 15 nM

SMILES: CNC(=O)CN(Cc1ccc(OCC(=O)NCc2nc3ccccc3c(=O)[nH]2)c(Cl)c1)Cc1cccn1C
Kd (Quadruplex DNA [11]): 1050 nM

SMILES: O=C(c1ccccc1)N1CCC2(CCCN(c3ncc(-c4ccccc4)c(-c4ccc(Cl)cc4)n3)C2)CC1
IC50 [3]: 45.8 nM
